Results published in patent US8614333B2, “Acenaphtho heterocyclic compound and application thereof” (Dalian University of Technology, priority 2010, dated 2013).
Where “and” joins values, the source holds several entries; their conditions need not be identical. Identical values can stand only once.

Legend:
[1] = tested on: BAX shift towards the chondriosome; assay: Co-localization between Bax protein and chondriosome, Bax-YFP in MCF-7 cells; assay type: cell-based; details: for Doses (concentration at which the compound drove the BAX to shift towards the chondriosome): Bax-YFP/Mito Tracker Red; for Time (time period after which BAX shifted towards the chondriosome): at the concentration given
Procedure: 5 μg of Bax-YFP plasmid was transfected into MCF-7 cells by using calcium phosphate coprecipitation method, 24 hours later, the cells were inoculated in a 6-well plate (0.2×10^6 cells/well), and 10 μM of the compound 1 to be detected was added thereinto. 6 hours later, the cells were washed with PBS and hatched away from light with 50 nM Mito Tracker Red CMXRos (chondriosome specific probes; red) for 10 minutes. Then the cells were washed with PBS for three times, and the fluorescent image was scanned with Radiance2000 laser confocal microscopy (Bio-Rad, USA). Meanwhile, dual channel scanning was carried out, one channel was used to scan the green fluorescence of Bax-YFP, and the other channel was used to scan the red fluorescence of the CMXRos probe for indicating the chondriosome. […] When the Bax protein was localized on the chondriosome, the green and red fluorescence was superimposed into orange, as shown in FIG. 7.
Other 24 compounds were detected by the same experimental method as described above. […] Wherein the concentration and time meant that the detected compound simulated the BH3-only protein and driven the BAX to shift towards the chondriosome at the concentration for the time period.

MCF-7 cells = assay: Cytotoxicity by MTT, cells without plasmid transfection; assay type: cell-based; details: Homo sapiens, MCF7; MCF-7, MTT, 48 hours; read-out: IC50 value in untransfected cells
Procedure: (§1) 3 μg of BAX/BAK interfering plasmid was transfected into MCF-7 cells by using calcium phosphate coprecipitation method, 24 hours later, the cells were collected. The expressions after the BAX and BAK proteins interfered with RNA was detected by Western, and the cell groups without plasmid transfection were treated similarly and were set as the control group. The transfected cells were inoculated in a 96-well plate (1×10^5 cells/well), the control experiment of the cell group without plasmid transfection was carried out in parallel. The compound 1 to be detected was added thereinto according to the concentration gradient designed before the experiment. 48 hours later, the cellular vitality was detected by MTT. The experimental results were shown in FIG. 9, Gossypol as nonspecific BH3 analogue was treated in parallel.
(§2) Other 24 compounds were also detected by the same experimental method as described above, the differences of IC50 values between the transfected cells and the without plasmid transfection cells were compared.

Bcl-2 protein = Bcl-2 protein (Homo sapiens, UniProt P10415); assay: ELISA assay, competitive binding to Bcl-2 protein (biotin-Bim/streptavidin plate); details: method calculates average IC50, read-out: Bcl-2 binding constants
Chain of Bcl-2 protein (P10415 whole entry, species assumed): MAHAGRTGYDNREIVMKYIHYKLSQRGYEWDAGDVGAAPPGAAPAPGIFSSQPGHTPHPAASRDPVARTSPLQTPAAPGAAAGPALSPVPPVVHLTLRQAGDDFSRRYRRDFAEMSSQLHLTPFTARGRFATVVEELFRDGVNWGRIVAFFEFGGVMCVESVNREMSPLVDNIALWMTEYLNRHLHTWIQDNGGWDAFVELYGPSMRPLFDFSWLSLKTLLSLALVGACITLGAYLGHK
Procedure: (§3) The present inventors used fluorescence polarization assay to detect the bonding force between the protein and the compounds in a previous study (PCT/CN2010/075521). […] ELISA assay was used to detect the bonding force between the compounds and the protein in this application.
(§4) Biotinylated Bim peptide was diluted to 0.09 μg/mL in SuperBlock blocking buffer in PBS and incubated for 1.5 h in 96-well microtiter plates already coated with streptavidin to allow the formation of the complex between Biotin-Bim and streptavidin. All incubations were performed at room temperature unless otherwise noted. Each inhibitor was first dissolved in pure DMSO to obtain a 10 mM stock solution. For each tested inhibitor, different concentrations of the inhibitor were incubated with 20 nM His-tagged Mcl-1 protein in PBS for 1 h with a final DMSO concentration of 4%. The plates were washed three times with PBS containing 0.05% Tween-20. The inhibitor and protein mixture (100 μL) were transferred to the plate containing the biotin-Bim/streptavidin complex and incubated for 2 h. The plate was then washed as before and mouse anti-His antibody that conjugated with horseradish peroxidase was added into the wells and incubated for 1 h. The plate was then washed with PBS containing 0.05% Tween-20. Finally, TMB was added to each well; the enzymatic reaction was stopped after 30 min by addition of H2SO4 (100 μL, 2M). Absorbances were measured with a TECAN GENios (Swiss, TECAN) microplate reader using a wavelength of 450 nm. Three independent experiments were performed with each inhibitor to calculate average IC50 value and standard deviation (SD).
(§5) The BH3 analogous degrees of other 11 compounds were detected by using the experimental method as described above. The protein binding constant (binding constant in table 1) between them and Bcl-2 and Mcl-1 proteins were also on nM grade.

Mcl-1 = assay: Western blotting, semiquantitative analysis of Mcl-1 protein bands; assay type: cell-based; details: tumor cells; for concentration of the protein bands (semiquantitative, normalized), Mcl-1: control = 1
Procedure: (§6) The interest protein was detected by the corresponding antibody. The expression of the interest protein in the cells was detected by horseradish peroxidase-labeled secondary antibodies in combination with ECL coloration method. […] The concentration of the protein bands in the Western images were carried out semiquantitative analysis and normalization treatment with KODAK Gel Logic 1500 imaging system software.

[2] = molecular target: T1, interaction between Bcl-2 and Bax (Homo sapiens, UniProt P10415); assay: Intracellular FRET, Bcl-2-CFP/Bax-YFP in Hela cells; assay type: cell-based; details: for Time (time period after which the interaction between Bcl-2 and Bax was interfered): at the concentration given
T1 construct: expressed in transfected cells; host or cells: Hela cells
T1 sequence (P10415 whole entry): as the sequence (P10415 whole entry, species assumed) above
Procedure: 2 μg of Bcl-2-CFP and Bax-YFP plasmids were transfected separately or simultaneously into Hela cells by using calcium phosphate coprecipitation method, 24 hours later, the cells were inoculated in a 6-well plate (2×10^5 cells/well), and the compound 1 to be detected dissolved in DMSO was added there into until the final concentration (2, 5, 10 and 15 μM) was achieved. 24 hours later (please refer to FIG. 5); the cells were washed with PBS for three times. The fluorescence value was detected by GENIOS fluorescence enzyme-labelled meter (TECAN, Swiss). In time-dependent experiment, the transfected cells were inoculated in a 6-well plate, after that, 40 μM of the compound was added thereinto. 3, 6 and 24 hours later (FIG. 6), the fluorescence intensities were detected by plate reader. As for the cell group in which only Bcl-2-CFP plasmid was transfected, the values at 475 nm emission wave length and 433 nm excitation wave length were recorded. As for the cell group in which only Bax-YFP plasmid was transfected, the values at 527 nm emission wave length and 505 nm excitation wave length were recorded. As for the cell group in which Bcl-2-CFP and Bax-YFP plasmids were co-transfected, the values at 527 nm and 475 emission wave lengths and 433 nm excitation wave length were recorded. The ratio of fluorescence intensity at 527 nm and 475 nm emission wave lengths was FRET. The FRET for the control group in which the plasmid was solely transfected was set as 1.0. […] In the cotransfected cells, the FRET increased up to 2.0 due to the interaction of Bcl-2 protein and Bax protein, and that the interference to the interaction between the two proteins increased and FRET decreased with the increase of the drug concentration and time. The cellular vitality was detected by MTT method. When the concentration of the compound reached 1 μM, the interaction between Bcl-2 and Bax can be interfered after 2 hours, and the results appeared concentration-time dependent trend.
Wherein the concentration and time meant that the detected compound interfered with the interaction between Bcl-2 and Bax at the concentration for the time period.

His-tagged Mcl-1 protein = His-tagged Mcl-1 protein (Homo sapiens, UniProt Q07820); assay: ELISA assay, competitive binding to Mcl-1 protein (biotin-Bim/streptavidin plate); details: 20 nM His-tagged Mcl-1, method calculates average IC50, read-out: Mcl-1 binding constants
Chain of His-tagged Mcl-1 protein (Q07820 whole entry): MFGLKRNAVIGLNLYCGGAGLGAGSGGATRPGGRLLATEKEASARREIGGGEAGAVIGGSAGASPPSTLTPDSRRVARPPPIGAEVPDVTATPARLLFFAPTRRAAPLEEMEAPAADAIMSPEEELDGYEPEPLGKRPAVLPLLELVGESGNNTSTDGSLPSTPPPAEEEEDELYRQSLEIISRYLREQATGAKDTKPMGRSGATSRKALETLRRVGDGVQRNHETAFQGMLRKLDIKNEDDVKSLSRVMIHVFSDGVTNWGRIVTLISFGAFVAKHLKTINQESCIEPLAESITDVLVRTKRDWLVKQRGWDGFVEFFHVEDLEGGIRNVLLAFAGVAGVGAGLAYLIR
Procedure: as §3, §4, §5

[3] = tested on: MCF-7 cells transfected with BAX/BAK interfering plasmid; assay: Cytotoxicity by MTT, cells transfected with BAX/BAK interfering plasmid; assay type: cell-based; details: for IC50: Homo sapiens, MCF7, MCF-7 with BAX/BAK interfering plasmid, MTT, 48 hours
Procedure: as §1, §2

Bcl-2 = assay: Western blotting, semiquantitative analysis of Bcl-2 protein bands; assay type: cell-based; details: tumor cells; for concentration of the protein bands (semiquantitative, normalized), Bcl-2: control = 1
Procedure: as §6

| IC50 (Bcl-2 protein) [µM] | Doses (concentration at which the compound interfered with the interaction between Bcl-2 and Bax) [2] | Time (time period after which the interaction between Bcl-2 and Bax was interfered) [2] [h] | IC50 (His-tagged Mcl-1 protein) [µM] | melting point [°C] | Structure (SMILES) | Doses (concentration at which the compound drove the BAX to shift towards the chondriosome) [1] [µM] | Time (time period after which BAX shifted towards the chondriosome) [1] [h] | IC50 (MCF-7 cells) [µM] | concentration of the protein bands (semiquantitative, normalized), Mcl-1 (Mcl-1; 2 h) | concentration of the protein bands (semiquantitative, normalized), Mcl-1 (Mcl-1; 6 h) | inhibition against Mcl-1 (in words) (Mcl-1; Western blotting) | IC50 [3] [µM] | dependence of cytotoxicity on BAX/BAK ([3]; comparison of transfected and untransfected MCF-7 cells) | concentration of the protein bands (semiquantitative, normalized), Bcl-2 (Bcl-2; 6 h) | concentration of the protein bands (semiquantitative, normalized), Bcl-2 (Bcl-2; 12 h) | concentration of the protein bands (semiquantitative, normalized), Bcl-2 (Bcl-2; 18 h) | concentration of the protein bands (semiquantitative, normalized), Bcl-2 (Bcl-2; 24 h) | inhibition against Bcl-2 (in words) (Bcl-2; Western blotting) |
| --- | --- | --- | --- | --- | --- | --- | --- | --- | --- | --- | --- | --- | --- | --- | --- | --- | --- | --- |
| 0.142 | 1 µM and 1.0 µM | 2 | 0.049 |  | CCCCNC1=C2C(=NC1=O)c1cccc3cccc2c13 [Compound 1, 9-n-Butylamino-8H-acenaphtho[1,2-b]pyrrol-8-one] | 1.0 | 3 | 4 | 0.79 | 0.35 | had the inhibition against these two proteins | > 50 | absolute dependence on BAX/BAK | 0.99 | 0.99 | 0.58 | 0.21 | had the inhibition against these two proteins |
| 0.028 | 0.4 µM | 3 | 0.025 | 234 to 235 | CCCCCCNC1=C2C(=NC1=O)c1cccc3cccc2c13 [Compound 2, 9-n-Hexylamino-acenaphtho[1,2-b]pyrrol-8-one] | 0.5 | 3 | 3.5 | 0.70 | 0.31 |  | > 50 |  | 0.99 | 0.99 | 0.50 | 0.19 |  |
| 0.008 | 0.2 µM | 2 | 0.014 | 252 to 253 | O=C1N=C2C(=C1NCCCc1ccccc1)c1cccc3cccc2c13 [Compound 3, 9-(3-Phenyl-propylamino)-acenaphtho[1,2-b]pyrrol-8-one] | 0.2 | 2 | 3 | 0.65 | 0.29 |  | > 50 |  | 0.99 | 0.99 | 0.49 | 0.18 |  |
| 0.035 | 1.0 µM | 5 | 0.095 | 250 to 251 | CCOc1ccc2c3c(cccc13)C1=NC(=O)C(NCCCc3ccccc3)=C12 [Compound 4, 3-Ethoxy-9-(3-phenyl-propylamino)-acenaphtho[1,2-b]pyrrol-8-one] | 3.0 | 4 | 5.6 |  |  |  | > 50 |  |  |  |  |  |  |
| 0.065 | 2.0 µM | 6 | 0.125 | 262 to 263 | CCCCNC1=C2C(=NC1=O)c1cccc3c(C(=O)c4ccccc4)ccc2c13 [Compound 5, 3-Benzoyl-9-butylamino-acenaphtho[1,2-b]pyrrol-8-one] | 5.0 | 5 | 6.5 |  |  |  | > 50 |  |  |  |  |  |  |
| 0.045 | 2.0 µM | 5 | 0.066 | 245 to 246 | CCCCN(C)C1=C2C(=NC1=O)c1cccc3cccc2c13 [Compound 6, 9-(Butyl-methyl-amino)-acenaphtho[1,2-b]pyrrol-8-one] | 4.0 | 4 | 4 |  |  |  | > 50 |  |  |  |  |  |  |
